According to patent US6472348B1, “Pyridone derivatives and herbicides” (Kumiai Chemical Industry Co., Ltd., priority 1996, dated 2002):

Legend:
[1] = system: rice flatsedge (Ci); assay: Test Example 2: herbicidal effects by upland field soil treatment; type: in vivo; settings: 100 g of the active ingredient per 10 ares;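 note: grade of growth control; 5 = at least 90%; 4 = 70 to 90%; 3 = 50 to 70%; 2 = 30 to 50%; 1 = 10 to 30%; 0 = under 10%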
Description: (§1) (Test on Herbicidal Effects by Upland Field Soil Treatment)

[2] = system: common lambsquarters (Ch); assay: as above; type: in vivo; settings: 100 g of the active ingredient per 10 ares
Description: as §1

[3] = system: pale smartweed (Po); assay: as above; type: in vivo; settings: 100 g of the active ingredient per 10 ares
Description: as §1

[4] = system: slender amaranth (Am); assay: as above; type: in vivo; settings: 100 g of the active ingredient per 10 ares
Description: as §1

[5] = system: bulrush (Sc); assay: Test Example 1: herbicidal effects by paddy field soil treatment; type: in vivo; settings: 100 g of the active ingredient per 10 ares, 21st day after the application, index 0-5 of Table 47;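 note: grade of growth control; 5 = at least 90%; 4 = 70 to 90%; 3 = 50 to 70%; 2 = 30 to 50%; 1 = 10 to 30%; 0 = under 10%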
Method in brief: (§2)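 Greenhouse pot test in flooded paddy soil, dosed at 100 g a.i. per 10 ares; effect scored on day 21.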

[6] = system: barnyardgrass (Ec); assay: as above; type: in vivo; settings: 100 g of the active ingredient per 10 ares, 21st day after the application, index 0-5 of Table 47;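 note: grade of growth control; 5 = at least 90%; 4 = 70 to 90%; 3 = 50 to 70%; 2 = 30 to 50%; 1 = 10 to 30%; 0 = under 10%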
Method in brief: as §2

[7] = system: monochoria (Mo); assay: as above; type: in vivo; settings: 100 g of the active ingredient per 10 ares, 21st day after the application, index 0-5 of Table 47;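 note: grade of growth control; 5 = at least 90%; 4 = 70 to 90%; 3 = 50 to 70%; 2 = 30 to 50%; 1 = 10 to 30%; 0 = under 10%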
Method in brief: as §2

[8] = system: green foxtail (Se); assay: Test Example 4: crop plant selectivity by upland field soil treatment (cotton), herbicidal effects; type: in vivo; parameters: scale not given here; settings: evaluated 21st day after application
Method in brief: (§3)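 Cotton and weeds (incl. China jute, pale smartweed, slender amaranth) sown in sand-filled pots and covered with soil, then soil-treated. Grown in greenhouse; herbicidal effect and cotton phytotoxicity scored on day 21 after application against a rating standard.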

[9] = system: common lambsquarters (Ch); assay: as above; type: in vivo; parameters: scale not given here; settings: evaluated 21st day after application
Method in brief: as §3

[10] = system: pale smartweed (Po); assay: as above; type: in vivo; parameters: scale not given here; settings: evaluated 21st day after application
Method in brief: as §3

[11] = system: slender amaranth (Am); assay: as above; type: in vivo; parameters: scale not given here; settings: evaluated 21st day after application
Method in brief: as §3

[12] = system: wheat (Tr); assay: Test Example 9: crop plant selectivity by upland field foliage treatment (wheat), phytotoxicity; settings: dose 1.6 g ai/10a, 14th day after treatment
Method in brief: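 Wheat and weeds sown in sand-filled pots, grown 2 weeks in a greenhouse, then foliage-treated. Herbicidal effect and crop phytotoxicity were scored 14 days after treatment against a rating scale.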

[13] = 21st day after the application, index 0-5 of Table 47
[14] = evaluated on the 21st day after application

| Structure (SMILES) | Herbicidal effects Ci [1, 13] | Herbicidal effects Ch [2, 13] | Herbicidal effects Po [3, 13] | Herbicidal effects Am [4, 13] | Herbicidal effects Sc [5] | Herbicidal effects Ec [6] | Herbicidal effects Mo [7] | Herbicidal effects Se ([8]; dose 6.3 g ai/10 a) | Herbicidal effects Ch ([9]; dose 6.3 g ai/10 a) | Herbicidal effects Po ([10]; dose 6.3 g ai/10 a) | Herbicidal effects Am ([11]; dose 6.3 g ai/10 a) | Phytotoxicity Tr [12] | Herbicidal effects Se ([8]; dose 1.6 g ai/10 a) | Herbicidal effects Ch ([9]; dose 1.6 g ai/10 a) | Herbicidal effects Po ([10]; dose 1.6 g ai/10 a) | Herbicidal effects Am ([11]; dose 1.6 g ai/10 a) | Herbicidal effects Ci [1, 14] | Herbicidal effects Ch [2, 14] | Herbicidal effects Po [3, 14] | Herbicidal effects Am [4, 14] |
| --- | --- | --- | --- | --- | --- | --- | --- | --- | --- | --- | --- | --- | --- | --- | --- | --- | --- | --- | --- | --- |
| CC(C)Sc1cc(-c2ccc(C(F)(F)F)n(C)c2=O)c(F)cc1Cl [1-43] | 5 | 5 | 5 | 5 | 5 | 5 | 5 | 5 | 5 | 5 | 5 | 2 | – | – | – | – | – | – | – | – |
| C#CCSc1cc(-c2ccc(C(F)(F)F)n(C)c2=O)c(F)cc1Cl [1-44] | 5 | 5 | 5 | 5 | 5 | 5 | 5 | 5 | 5 | 5 | 5 | 2 | – | – | – | – | – | – | – | – |
| CCOC(=O)c1cc(-c2ccc(C(F)(F)F)n(C)c2=O)c(F)cc1Cl [1-65] | 5 | 5 | 5 | 5 | 5 | 5 | 5 | 5 | 5 | 5 | 5 | 2 | 5 | 5 | 5 | 5 | – | – | – | – |
| COCSc1cc(-c2ccc(C(F)(F)F)n(C)c2=O)c(F)cc1Cl [1-91] | 5 | 5 | 5 | 5 | 5 | 5 | 5 | 5 | 5 | 5 | 5 | 2 | 5 | 5 | 5 | 5 | – | – | – | – |
| Cn1c(C(F)(F)F)ccc(-c2cc(OCC3CC3)c(Cl)cc2F)c1=O [1-160] | 5 | 5 | 5 | 5 | 5 | 5 | 5 | 5 | 5 | 5 | 5 | 2 | – | – | – | – | – | – | – | – |
| Cn1c(C(F)(F)F)ccc(-c2cc(OCCCl)c(Cl)cc2F)c1=O [1-171] | – | – | – | – | 5 | 5 | 5 | 5 | 5 | 5 | 5 | 2 | – | – | – | – | 5 | 5 | 5 | 5 |
| C#CCOc1cc(-c2ccc(C(F)(F)F)n(N)c2=O)c(F)cc1Cl [1-178] | – | – | – | – | 5 | 5 | 5 | 5 | 5 | 5 | 5 | 2 | 5 | 5 | 5 | 5 | 5 | 5 | 5 | 5 |
| COc1cc(-c2ccc(C(F)(F)F)n(N)c2=O)c(F)cc1Cl [1-179] | – | – | – | – | 5 | 5 | 5 | 5 | 5 | 5 | 5 | 2 | – | – | – | – | 5 | 5 | 5 | 5 |
| CCOCOc1cc(-c2ccc(C(F)(F)F)n(C)c2=O)c(F)cc1Cl [1-181] | – | – | – | – | 5 | 5 | 5 | 5 | 5 | 5 | 5 | 2 | – | – | – | – | 5 | 5 | 5 | 5 |
| C#CC(C)Oc1cc(Cl)cc(F)c1-c1ccc(C(F)(F)F)n(C)c1=O (centres unmarked) [1′-5] | – | – | – | – | 5 | 5 | 5 | 5 | 5 | 5 | 5 | 1 | 4 | 5 | 5 | 5 | 5 | 5 | 5 | 5 |
| C=CC(C)Oc1cc(-c2ccc(C(F)(F)F)n(C)c2=O)c(F)cc1Cl (centres unmarked) [Compound 1-182] | – | – | – | – | 5 | 5 | 5 | 5 | 5 | 5 | 5 | 1 | – | – | – | – | 5 | 5 | 5 | 5 |
| CCON=Cc1cc(-c2ccc(C(F)(F)F)n(C)c2=O)c(F)cc1Cl [Compound 1-187] | – | – | – | – | 5 | 5 | 5 | 5 | 5 | 5 | 5 | 2 | – | – | – | – | 5 | 5 | 5 | 5 |
| CCOC(=O)CON=Cc1cc(-c2ccc(C(F)(F)F)n(C)c2=O)c(F)cc1Cl [Compound 1-191] | – | – | – | – | 5 | 5 | 5 | 5 | 5 | 5 | 5 | 2 | – | – | – | – | 5 | 5 | 5 | 5 |
| C=CC(O)c1cc(-c2ccc(C(F)(F)F)n(C)c2=O)c(F)cc1Cl (centres unmarked) [Compound 1-197] | – | – | – | – | 5 | 5 | 5 | 5 | 5 | 5 | 5 | 2 | – | – | – | – | 5 | 5 | 5 | 5 |
| C#CC(O)c1cc(-c2ccc(C(F)(F)F)n(C)c2=O)c(F)cc1Cl (centres unmarked) [Compound 1-202] | – | – | – | – | 5 | 5 | 5 | 5 | 5 | 5 | 5 | 2 | 5 | 5 | 5 | 5 | 5 | 5 | 5 | 5 |
| CSCOc1cc(-c2ccc(C(F)(F)F)n(C)c2=O)c(F)cc1Cl [Compound 1-208] | – | – | – | – | 5 | 5 | 5 | 5 | 5 | 4 | 5 | 2 | – | – | – | – | 5 | 5 | 5 | 5 |
| C#CCN1C(=O)COc2cc(Cl)c(-c3ccc(C(F)(F)F)n(C)c3=O)cc21 [Compound 2-25] | – | – | – | – | 5 | 5 | 5 | 5 | 5 | 5 | 5 | 2 | 5 | 5 | 5 | 5 | 5 | 5 | 5 | 5 |
| C=CCN1C(=O)COc2cc(Cl)c(-c3ccc(C(F)(F)F)n(C)c3=O)cc21 [Compound 2-26] | – | – | – | – | 5 | 5 | 5 | 5 | 5 | 5 | 5 | 2 | – | – | – | – | 5 | 5 | 5 | 5 |
| Cc1cc2c(-c3ccc(C(F)(F)F)n(C)c3=O)c(F)cc(Cl)c2o1 [Compound 4-1] | – | – | – | – | 5 | 5 | 5 | 5 | 5 | 5 | 5 | 2 | 5 | 5 | 5 | 5 | 5 | 5 | 5 | 5 |
| CCc1cc2c(-c3ccc(C(F)(F)F)n(C)c3=O)c(F)cc(Cl)c2o1 [Compound 4-2] | – | – | – | – | 5 | 5 | 5 | 5 | 5 | 5 | 5 | 2 | 5 | 5 | 5 | 5 | 5 | 5 | 5 | 5 |
| CCCc1cc2c(-c3ccc(C(F)(F)F)n(C)c3=O)c(F)cc(Cl)c2o1 [Compound 4-3] | – | – | – | – | 5 | 5 | 5 | 5 | 5 | 5 | 5 | 2 | – | – | – | – | 5 | 5 | 5 | 5 |
